Assay results reported in patent US20220125959A1, “PROSTATE-SPECIFIC MEMBRANE ANTIGEN (PSMA) INHIBITORS AS DIAGNOSTIC AND RADIONUCLIDE THERAPEUTIC AGENTS” (FIVE ELEVEN PHARMA INC., priority 2019, published 2022).

Tests used:
[1] = target: T1, PSMA (Homo sapiens, UniProt Q04609); assay: PSMA competitive binding, PC-3 PIP cells with [125I]MIP-1095; set-up: expressed in transfected cells; host or cells: PC-3 PIP cells; settings: n = 3 (a: n = 2); read-out: IC50 *(PC-3 PIP cells and [125I]MIP-1095)
Procedure: (§1) In vitro binding assays were carried out to determine the PSMA binding affinity of various compounds. By incubating PSMA positive cells either with: 1). LNCaP with 0.2 nM [^68Ga]PSMA-11 or [^125I]MIP-1095, as the ligand, in the presence of 10 different concentrations of competing ligands; non-specific binding was defined with 20 μM 2-PMPA (2-(phosphonomethyl)pentanedioic acid); or 2). PC-3 PIP cells with [^125I]MIP-1095 (0.18 nM diluted in PBS) in presence of different concentration of test compounds ([…] diluted in PBS containing 0.1% bovine serum albumin). Nonspecific binding (NSB) was defined with 2 μM the known PSMA inhibitor, PSMA-617. After incubation at 37° C. for 1 h, the bound and free fractions were separated by vacuum filtration through GF/B filters using a Brandel M-24R cell harvester. The filters were washed twice with cold Tris-HCl buffer (50 mM, pH=7.4), and the radioactivity on the filters was counted in a gamma counter (Wizard^2, Perkin-Elmer) with 50% efficiency. The nonspecific bound was less than 10% of the total bound. Data were analyzed using GraphPad Prism 6.0 with a nonlinear regression algorithm to obtain the half maximal inhibitory concentration (IC50).
(§2) The binding affinities to PSMA of the test compounds were measured by a competitive binding assay using either LNCap or PC-3 PIP cells suspension and the known radiotracers known to have high affinity and specificity to PSMA, [^68Ga]PSMA-11 or [^125I]MIP-1095. The IC50 values of four iodinated compounds, three DOTA, DOTAG and DOTA(GA)2 related compounds and two known PSMA inhibitors are shown in Table 1. Complexes of compound 4 and natural Ga and natural Lu were also tested. […] After labeling with radioisotope they are expected to bind to the tumor tissues over expressing PSMA binding sites.
Target sequence in this assay (Q04609 whole entry, species assumed): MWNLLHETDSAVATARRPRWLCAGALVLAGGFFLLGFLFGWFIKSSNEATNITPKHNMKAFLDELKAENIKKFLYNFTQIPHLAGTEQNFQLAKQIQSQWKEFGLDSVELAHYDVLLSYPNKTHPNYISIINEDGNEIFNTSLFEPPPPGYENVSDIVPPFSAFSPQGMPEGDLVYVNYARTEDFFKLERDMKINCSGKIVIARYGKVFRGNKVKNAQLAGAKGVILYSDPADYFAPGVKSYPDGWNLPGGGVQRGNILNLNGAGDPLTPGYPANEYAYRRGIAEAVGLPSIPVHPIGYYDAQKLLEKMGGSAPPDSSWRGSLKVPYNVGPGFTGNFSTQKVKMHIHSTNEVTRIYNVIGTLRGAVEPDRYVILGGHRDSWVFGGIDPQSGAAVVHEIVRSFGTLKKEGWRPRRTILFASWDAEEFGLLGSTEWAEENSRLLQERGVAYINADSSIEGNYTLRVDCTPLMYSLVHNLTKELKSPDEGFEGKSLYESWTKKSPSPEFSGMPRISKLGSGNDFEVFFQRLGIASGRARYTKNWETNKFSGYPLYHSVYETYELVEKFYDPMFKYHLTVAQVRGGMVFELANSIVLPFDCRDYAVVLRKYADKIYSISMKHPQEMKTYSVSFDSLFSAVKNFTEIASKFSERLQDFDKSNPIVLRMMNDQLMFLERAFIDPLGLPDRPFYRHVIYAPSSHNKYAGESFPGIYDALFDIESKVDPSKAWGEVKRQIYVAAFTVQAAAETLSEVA

[2] = target: T1, PSMA; assay: PSMA competitive binding, LNCaP cells with [68Ga]PSMA-11; set-up: LNCaP with 0.2 nM; endogenous in cells; host or cells: LNCaP cells (suspension); settings: n = 3; read-out: IC50 (LNCaP human PCa cells and [68Ga]PSMA-11)
Procedure: as §1, §2
Target sequence in this assay (Q04609 whole entry): as the sequence (Q04609 whole entry, species assumed) above

[3] = target: T1, PSMA; set-up: expressed in transfected cells; host or cells: PC-3 PIP cells; settings: ^131I labeled MIP-1095; read-out: PSMA binding affinity Ki; cited from earlier work
Target sequence in this assay (Q04609 whole entry, species assumed): as above

| IC50 [1] [µM] | IC50 [2] [µM] | Structure (SMILES) | Ki [3] [µM] |
| --- | --- | --- | --- |
| 0.0339 ± 0.00238 | 0.0287 ± 0.0017 | O=C(O)CCC(C(=O)O)N1CCN(CC(=O)O)CCN(C(CCC(=O)NCC(=O)N[C@@H](Cc2ccc(OCC(=O)N[C@@H](Cc3ccccc3)C(=O)NCCCC[C@H](NC(=O)N[C@@H](CCC(=O)O)C(=O)O)C(=O)O)cc2)C(=O)O)C(=O)O)CCN(CC(=O)O)CC1 (stereo partly drawn) [Compound 4, (4S,11S,15S)-4-benzyl-1-(4-((2S)-2-(2-(4-(4,10-bis(carboxymethyl)-7-(1,3-dicarboxypropyl)-1,4,7,10-tetraazacyclododecan-1-yl)-4-carboxybutanamido)acetamido)-2-carboxyethyl)phenoxy)-2,5,13-trioxo-3,6,12,14-tetraazaheptadecane-11,15,17-tricarboxylic acid] |  |
| 0.0109 ± 0.00037 | 0.0111 ± 0.0008 | O=C(O)CC[C@H](NC(=O)N[C@@H](CCCCNC(=O)[C@H](Cc1ccc2ccccc2c1)NC(=O)[C@H]1CC[C@H](CNC(=O)CN2CCN(CC(=O)O)CCN(CC(=O)O)CCN(CC(=O)O)CC2)CC1)C(=O)O)C(=O)O [PSMA-617, 2-[3-(1-Carboxy-5-(3-naphthalen-2-yl-2-[(4-([2-(4,7,10-tris-carboxymethyl-1,4,7,10-tetraaza-cyclododec-1-yl)-acetylamino]-methyl)-cyclohexanecarbonyl)-amino]-Propionylamino)-pentyl)-ureido]-pentanedioic acid, reference compound] |  |

Second part, the molecule before the results:

| Structure (SMILES) | IC50 [1] [µM] | IC50 [2] [µM] | Ki [3] [µM] |
| --- | --- | --- | --- |
| O=C(O)CC[C@H](NC(=O)N[C@@H](CCCCNC(=O)[C@H](Cc1ccccc1)NC(=O)COc1ccc(C[C@H](NC(=O)CNC(=O)CCC(C(=O)O)N2CCN(CC(=O)O)CCN(C(CCC(=O)NCCOCCOCCNC(=O)CCCc3ccc(I)cc3)C(=O)O)CCN(CC(=O)O)CC2)C(=O)O)cc1)C(=O)O)C(=O)O (stereo partly drawn) [Compound 7, (4S,11S,15S)-4-benzyl-1-(4-((2S)-2-carboxy-2-(2-(4-carboxy-4-(7-(1-carboxy-18-(4-iodophenyl)-4,15-dioxo-8,11-dioxa-5,14-diazaoctadecyl)-4,10-bis(carboxymethyl)-1,4,7,10-tetraazacyclododecan-1-yl)butanamido)acetamido)ethyl)phenoxy)-2,5,13-trioxo-3,6,12,14-tetraazaheptadecane-11,15,17-tricarboxylic acid] | 0.0136 ± 0.00102 | 0.0154 ± 0.0008 |  |
| O=C(O)CC[C@H](NC(=O)N[C@@H](CCCCNC(=O)[C@H](Cc1ccccc1)NC(=O)COc1ccc(C[C@H](NC(=O)CNC(=O)CCC(C(=O)O)N2CCN(CC(=O)O)CCN(CC(=O)O)CCN(CC(=O)O)CC2)C(=O)NCC(=O)NC(P(=O)(O)O)P(=O)(O)O)cc1)C(=O)O)C(=O)O (stereo partly drawn) [Compound 51, (((1S)-1-Carboxy-5-((2S)-2-(2-(4-((2S)-2-(2-(4-carboxy-4-(4,7,10-tris(carboxymethyl)-1,4,7,10-tetraazacyclododecan-1-yl)butanamido)acetamido)-3-((2-((diphosphonomethyl)amino)-2-oxoethyl)amino)-3-oxopropyl)phenoxy)acetamido)-3-phenylpropanamido)pentyl)carbamoyl)-L-glutamic acid] |  | 0.0107 ± 0.0016 |  |
| O=C(O)CC[C@H](NC(=O)N[C@@H](CCCCNC(=O)Nc1ccc(I)cc1)C(=O)O)C(=O)O [MIP-1095] |  |  | 0.0046 |
